Assay [1] has as its system A. baumannii MDR strain 1. It is filed as cell-based, Acinetobacter baumannii complex. Here is the method:
(§1) The antimicrobial activity of peptide γ2 was evaluated versus Pseudomonas aeruginosa ATCC 27853, Escherichia coli ATCC 13762 and Staphylococcus aureus ATCC 6538, and versus multidrug-resistant (MDR) clinical isolates of Methicillin-Resistant Staphylococcus aureus (MRSA), extended-spectrum β-lactamase (ESBL)-producing E. coli, P. aeruginosa and Acinetobacter baumannii complex. The isolates were identified by mass spectrometry using the MALDI (matrix-assisted laser desorption/ionisation) mass spectrometer and the biochemical phenotyping method in a VITEKR 2 bioMérieux system (bioMérieux Italia S.p.a., Bagno a Ripoli, Florence, Italy), according to the manufacturer's instructions. The antibiotic susceptibility profile was evaluated with the VITEKR 2 bioMérieux System. The microorganisms were cultured in broth and agar at 37° C. The media used were BD Brain Heart Infusion broth (BHI) (BD, Franklin Lakes, NJ, USA) and BHI agar (OXOID, Basingstoke, Hampshire, UK), BD Trypticase Soy agar with 5% sheep's blood and MacConkey agar (OXOID, Basingstoke, Hampshire, UK). The isolates were stored frozen at −80° C. in BHI broth supplemented with 10% (v/v) glycerol (Carlo Erba Reagents, Milan, Italy) until use, and the work cultures were activated in the respective broths at 37° C. for 15-18 h.
(§2) Assays of the antibacterial activity of peptide γ2, in both reduced and oxidised form, were conducted against P. aeruginosa ATCC 27853, E. coli ATCC 13762, S. aureus ATCC 6538 and MDR clinical isolates. The strains were cultured under aerobic conditions in BHI broth at 37° C. and incubated with peptide γ2 for 2 hours at 37° C. Various concentrations of peptide were used, ranging from 1 μM to 128 μM. Each test was conducted in triplicate with three independent cultures. The minimum inhibitory concentration (MIC) and the minimum bactericidal concentration (MBC) of the peptide were determined with a modified version of the Clinical and Laboratory Standards Institute broth microdilution assay, using a final inoculum concentration of 10^5 CFU/ml, as previously described (Scudiero O et al., Antimicrob Agents Chemother 2010; 54:2312-22; Scudiero O et al. Antimicrob Ag Chemother 2013; 57:1701-8).
(§3) The MIC is indicated by the concentration interval, which comprise the upper growth limit and the first concentration which could not support visible bacterial growth after incubation. The MBC was defined as the lowest concentration at which no viable colonies were observed. The peptide concentrations were 128.0, 64.0, 32.0, 16.0, 8.0, 4.0, 2.0 and 1 μM. For the time-kill studies against the ATCC and MDR strains, the bacteria were cultured in BHI broth until the late log growth phase at 37° C. The bacterial suspensions, containing about 10^6 CFU/ml (adjusted by the spectrophotometer to OD600 nm), were diluted 1:100 in PBS1× and then incubated at 37° C. with or without the peptide, selected at concentrations corresponding to 1, 2 and 4×MIC (as determined above). At baseline and 1, 2, 3 and 5 hours after incubation, a portion of each sample was harvested, diluted in series in PBS1× and seeded on BHI agar. The plates were incubated for […] at 37° C., and the viable bacteria count was conducted by the CFU method. All the data were expressed as mean±SD of three independent experiments.

Assay [2] deals with A. baumannii MDR strain 2. Format: cell-based, Acinetobacter baumannii complex. The procedure:
as §1, §2, §3

The next assay has as its system P. aeruginosa ATCC 27853. It is filed as cell-based, Pseudomonas aeruginosa. Here is the method:
as §1, §2, §3

The test system of assay [3] is P. aeruginosa MDR strain 2. Format: cell-based, Pseudomonas aeruginosa. The procedure:
as §1, §2, §3

The test system of assay [4] is P. aeruginosa MDR strain 1. It is filed as cell-based, Pseudomonas aeruginosa. Here is the method:
as §1, §2, §3

The next assay deals with MRSA strain 2. It is filed as cell-based, Staphylococcus aureus. The procedure:
as §1, §2, §3

Another assay deals with MRSA strain 1. Format: cell-based, Staphylococcus aureus. The procedure:
as §1, §2, §3

A further assay deals with MRSA strain 3. It is filed as cell-based, Staphylococcus aureus. The procedure:
as §1, §2, §3

The next assay concerns S. aureus ATCC 6538. Format: cell-based, Staphylococcus aureus. Here is the method: as §1, §2, §3
In a further assay the test system is E. coli ATCC 13762. Format: cell-based, Escherichia coli. The procedure: as §1, §2, §3
The subject of a further assay is E. coli ESBL strain 2. It is filed as cell-based, Escherichia coli. The procedure:
as §1, §2, §3

Another assay concerns E. coli ESBL strain 1. It is filed as cell-based, Escherichia coli. Here is the method: as §1, §2, §3
The subject of another assay is HUVEC endothelial cells. Kind of assay: Cell migration assay in Boyden chambers. It is filed as cell-based. The note with it: endothelial cells (HUVEC); 10 nM; 4 h. The procedure: (§4) Cell migration assays were conducted as previously described (Bifulco K et al., Mol Cancer There 2013; 2:1981-93), using Boyden chambers and polyvinylpyrrolidone-free polycarbonate filters with 8 μm pores inserted between a lower and upper compartment. Briefly, the cell suspension (1×10^5 viable cells/mL of serum-free medium) was seeded in each upper chamber. The lower chambers were filled with DMEM only, DMEM containing 10 nM N-formyl-methionyl-leucylphenylalanine peptide (fMLF), as positive control, or increasing peptide γ2 concentration. Incubation was conducted for 4 h at 37° C. in air humidified with 5% CO2. At the end of the assay, the cells on the lower surface of the filter were fixed with ethanol and stained with haematoxylin, and 10 random fields/filter were counted with a 200× magnification. The extent of cell migration was expressed as a percentage of baseline cell migration evaluated in the absence of chemo-attractants, taken as 100% (CTRL).

In a further assay the test system is HT-1080 cells. In words: Cell migration assay in Boyden chambers. Format: cell-based. The note with it: 10 nM, 4 h. The procedure:
as §4

A further assay concerns A549 cells. In words: Cell migration assay in Boyden chambers. The note with it: 10 nM, 4 h. Format: cell-based. Here is the method: as §4

In brackets after ≈: the same amount, converted by molar mass. Like-named read-outs stand apart in the source and are kept apart here. Where a SMILES comes first, the peptide text is derived from it. Bridges are numbered along the chain shown (N, C = ends).

As for `CC[C@H](C)[C@@H]1NC(=O)[C@H](CCC(N)=O)NC(=O)[C@H](CCCNC(=N)N)NC(=O)[C@H](CCCNC(=N)N)NC(=O)[C@H](CCCCN)NC(=O)[C@@H]2CCCN2C(=O)[C@H](CC(C)C)NC(=O)[C@@H](NC(C)=O)CSSC[C@@H](C(=O)N[C@@H](CCCCN)C(=O)N[C@@H](CCCCN)C(N)=O)NC(=O)[C@H](CO)NC(=O)[C@H](CCCCN)NC(=O)[C@H](CCCNC(=N)N)NC(=O)CNC(=O)[C@H](CCCNC(=N)N)NC(=O)[C@H]([C@@H](C)O)NC(=O)[C@H](CO)NC(=O)[C@H](CO)NC(=O)[C@H](CCCCN)NC(=O)CNC1=O` [Oxidised peptide γ2] (Ac-CLPKRRQIGKSSTRGRKSCKK-NH2; disulfide 1-19 (inferred)), the MBC is 128 µM (≈ 314 µg/mL) in assay [1]; 4 µM (≈ 9.83 µg/mL) in assay [2] (MDR strain 2); 4 µM (≈ 9.83 µg/mL) against P. aeruginosa ATCC 27853; 32 µM (≈ 78.6 µg/mL) in [3]; 32 µM (≈ 78.6 µg/mL) in [4]; 16 µM (≈ 39.3 µg/mL) against MRSA strain 2. In addition, the MBC against MRSA strain 1 amounted to 2 µM (≈ 4.91 µg/mL); in the assay with MRSA strain 3 it was 32 µM (≈ 78.6 µg/mL); with S. aureus ATCC 6538, 8 µM (≈ 19.7 µg/mL); in the assay with E. coli ATCC 13762, 1 µM (≈ 2.46 µg/mL); with E. coli ESBL strain 2, 32 µM (≈ 78.6 µg/mL); in the assay with E. coli ESBL strain 1, 2 µM (≈ 4.91 µg/mL). Moreover, the MIC was found to be 4 µM (≈ 9.83 µg/mL) in [2] (MDR strain 2); 4 µM (≈ 9.83 µg/mL) in assay [2] (multidrug-resistant clinical strain 2 of A. baumannii); 1 µM (≈ 2.46 µg/mL) in [3]; 2 µM (≈ 4.91 µg/mL) in the assay with MRSA strain 2; 1 µM (≈ 2.46 µg/mL) against MRSA strain 1; 2 µM (≈ 4.91 µg/mL) in the assay with MRSA strain 3. Further, the minimal inhibitory concentration (MIC) against E. coli ATCC 13762 stood at 1 µM (≈ 2.46 µg/mL); in the assay with E. coli ESBL strain 2 it was 1 µM (≈ 2.46 µg/mL); with E. coli ESBL strain 1 it was 2 µM (≈ 4.91 µg/mL).

For “N-formyl-methionyl-leucylphenylalanine peptide [fMLF, reference compound]”, the “cell migration, % of the baseline cell migration” value in the assay on HUVEC endothelial cells is reported as 166%; in the assay on HT-1080 cells it was 167%; with A549 cells, 153%.

For the origin of these results see patent publication US20240417435A1, “DEFENSIN-DERIVED PEPTIDE WITH ANTIBACTERIAL ACTIVITY ALSO AGAINST MULTI-ANTIBIOTIC-RESISTANT BACTERIA” (priority 2021, published 2024).
